The conditions of data set [1]: cited from earlier work.
A short description of data set [2]: Stability in plasma. The format is in vitro ADME. The following applies: after 25 hours.
In data set [3] the test system is S180 sarcoma. As to the kind of experiment: S180 sarcoma growth in mice. The data set is classed as in vivo. The following applies: S180 sarcoma bearing mice; DS 30 mg/kg oral, CuCl2 3 mg/kg oral.
Method: An S180 mouse sarcoma (FIGS. 6A-6C) and MDA-MB-231 breast cancer cells (1×10^6) (FIG. 6D-6F) were subcutaneously injected into the rare frank of BALB/c and CD1 Nu/Nu mice respectively (S180: n=5; MDA-MB-231: n=6).
Five-week-old female athymic CD1 nude mice used in this study were housed under pathogen-free conditions. Human MDA-MB-231 breast cancer or mouse S180 sarcoma cells (1×10^6) were injected s.c. at one flank of the mice. Tumour volume (V) was determined by the equation: V=(L×W^2)×0.5, where L is the length and W is the width of the tumour. When xenografts reached volumes of ˜200 mm^3, the mice showing tumours were randomly grouped for the following treatments. The first day of drug treatment was designated as day 1.
Five groups (5 mice/group) were set up for mice with S180 sarcoma: 1. control, No treatment; 2. […] DS, non-encapsulated DS 30 mg/kg dissolved in vegetable oil, oral administration; 5. DS/Cu: DS 30 mg/kg oral and CuCl2 3 mg/kg oral.
The animals were subjected to different treatments when their tumours reached 2 mm in diameter. The drugs were administrated on Monday, Wednesday and Friday for two successive weeks. […] For the combination treatment groups, CuCl2 were administered in the morning.
The nature of data set [4]: Stability in whole blood. To be noted: after 5 hours. The data set is classed as in vitro ADME.
The subject of data set [5] is breast cancer cell lines. As to the kind of experiment: MTT cytotoxicity assay in breast cancer cell lines. The following applies: CuCl2 (10 μM) containing medium, 72 hours.
Method: After 72 hours, the viability of the treated cells was determined by MTT assay.
The viability was determined by MTT assay.
(§1) All cell lines were cultured in DMEM (Lonza, Wokingham, UK) supplemented with 10% FCS, 50 units/ml penicillin, 50 μg/ml streptomycin. For in vitro cytotoxicity assay, cells [5,000/well (10,000/well for MDA-MB-231PAC10)] were cultured overnight in 96-well flat-bottomed microtiter plates then exposed to drugs for 72 h and subjected to a standard MTT assay (Plumb J A, et al Cancer Res 1989; 49(16):4435-40).
The cells were then subjected to MTT analysis as described above.
The test system of data set [6] is MDA-MB-231. Description: MTT cytotoxicity assay, single drugs and combinations with Lipo-DS/Cu. The format is cell-based. The following applies: Homo sapiens, MDA-MB-231, 72 h.
Method: as §1
(§2) The cells were then subjected to MTT analysis as described above. […] The combination index (CI) was determined by mutually exclusive equations.
The test system of data set [7] is MCF7. The data set is described as above. The following applies: Homo sapiens, MCF7, 72 h. The format is cell-based.
Method: as §1, §2
Data set [8] relates to T47D. The description is as above. The format is cell-based. The following applies: Homo sapiens, 72 h.
Method: as §1, §2

Regarding `CCN(CC)C(=S)SSC(=S)N(CC)CC` [DS, disulfiram], the blood concentration result in data set [1] (after oral administration of a 500 mg dose) is “below the limit of detection”. The “half-life in the blood stream” value in data set [1] (degraded by glutathione reductase system in erythrocytes) is 4 min. Further, the remaining in plasma entry in data set [2] was “about 15%”. Besides, the “in vivo anticancer effect” value in data set [3] was “not detected”. Moreover, the “remaining in whole blood” value in data set [4] is recorded as “about 10%”. Also, the “cytotoxicity to BC cell lines” value in data set [5] is “comparable cytotoxicity”.
Take `COc1cccc2c1C(=O)c1c(O)c3c(c(O)c1C2=O)C[C@@](O)(C(=O)CO)C[C@@H]3O[C@H]1C[C@H](N)[C@H](O)[C@H](C)O1` [Dox alone, doxorubicin]: the figures for the IC50 in data set [6], in data set [7] and in data set [8] were 178 nM, 440 nM and 160 nM, respectively.
For `Nc1ccn([C@@H]2O[C@H](CO)[C@@H](O)C2(F)F)c(=O)n1` [GEM alone, gemcitabine] the same measures were 12.3 nM, 22.1 nM and 35 nM.
The corresponding values for `CC(=O)O[C@H]1C(=O)[C@@]2(C)[C@H]([C@H](OC(=O)c3ccccc3)[C@]3(O)C[C@H](OC(=O)[C@H](O)[C@@H](NC(=O)c4ccccc4)c4ccccc4)C(C)=C1C3(C)C)[C@]1(OC(C)=O)CO[C@@H]1C[C@@H]2O` [Pac alone, paclitaxel] are 9.3 nM, 4.3 nM and 2.6 nM.

Source of the values: patent publication US20140037715A1, “DISULFIRAM FORMULATION AND USES THEREOF” (UNIVERSITY OF WOLVERHAMPTON, priority 2010, published 2014).
